According to PubChem BioAssay AID1645865 (Buhrlage Lab, Dana-Farber Cancer Institute and Novartis …, 2021):
The source made the active and inactive calls.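 Rule for the calls: active = maximal inhibition of the USP30 enzyme reaching 30% or more across the dose series; inactive = the rest.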

Molecular target: Ubiquitin carboxyl-terminal hydrolase 30 (Homo sapiens) (UniProt Q70CQ3)
Experiment: inhibitors of ubiquitin-specific protease 30 deubiquitylating enzyme, concentration dependence, in vitro biochemical, validation of primary hits (AID 1645865)
Conditions: purified USP30, Ub-rhodamine cleavage, fluorescence, 2 h

Chain of Ubiquitin carboxyl-terminal hydrolase 30 (Homo sapiens) (Q70CQ3 whole entry, looked up): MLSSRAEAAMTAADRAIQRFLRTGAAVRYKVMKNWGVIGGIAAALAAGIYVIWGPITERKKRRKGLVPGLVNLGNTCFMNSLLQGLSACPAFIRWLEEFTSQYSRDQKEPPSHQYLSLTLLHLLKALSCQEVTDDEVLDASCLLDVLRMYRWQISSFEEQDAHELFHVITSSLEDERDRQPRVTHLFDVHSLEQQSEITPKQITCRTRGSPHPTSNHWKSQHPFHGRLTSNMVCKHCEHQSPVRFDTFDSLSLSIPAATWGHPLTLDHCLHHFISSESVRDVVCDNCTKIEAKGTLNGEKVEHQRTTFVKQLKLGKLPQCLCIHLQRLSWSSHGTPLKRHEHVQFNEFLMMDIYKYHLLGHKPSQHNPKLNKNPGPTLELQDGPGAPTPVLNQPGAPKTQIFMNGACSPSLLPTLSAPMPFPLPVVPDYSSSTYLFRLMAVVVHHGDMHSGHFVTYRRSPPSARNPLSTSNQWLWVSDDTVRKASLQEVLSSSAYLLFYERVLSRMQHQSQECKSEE

| Compound | IC50 |
| --- | --- |
| O=C(Nc1ccccc1)c1nc2c(s1)CCN(C(=O)c1ccccc1)CC2 | > 50 µM (inactive) |
| COc1cccc2c1OCC(NS(=O)(=O)c1cc(C)ccc1C)C2 (stereo not given) | > 50 µM (inactive) |
| Cc1ccc(-n2c(=O)[nH]c3c(C(N)=O)nc(-c4cccnc4)nc32)cc1 | 3.37 µM |
| Cc1nn(-c2cccc(F)c2)c2c1C(C(=O)c1ccc(Cl)s1)CC(=O)N2 (stereo not given) | 32.5 µM |
| CCc1ccc(OCc2nnc(SCC(=O)Nc3ccccc3OC)n2Cc2ccccc2)cc1 | > 50 µM (inactive) |
| CCOc1ccc(Nc2cc(C(=O)NCCc3ccccc3)c3ccccc3n2)cc1 | 13.6 µM |
| COc1ccc(C2CC(=O)Nc3ccc4ccccc4c32)c(OC)c1OC (stereo not given) | 22.3 µM |
| CNC(=O)c1c2n(c3ncccc13)CCN(S(=O)(=O)c1ccc(-c3ccccc3)cc1)C2 | 3.95 µM |
| CNC(=O)c1cc2nc(N(C)C)n(-c3ccccc3)c2s1 | > 50 µM (inactive) |
| COc1ccc(NC2c3ccccc3C(=O)N2c2ccccn2)cc1 (stereo not given) | > 50 µM (inactive) |
| Cc1c(C)n(-c2ccccc2)c2ncn(CC(=O)N(C)Cc3ccccc3)c(=O)c12 | > 50 µM (inactive) |
| CNc1nc2c(c(=O)n1Cc1ccccc1)CN(C(=O)c1ccc(CN)cc1)CC2 | 42.8 µM |
| O=C(COC(=O)Cn1cnc2ccccc21)Nc1ccc2c(c1)OCCO2 | > 50 µM (inactive) |
| COc1ccc(NC(=O)c2ccc(Nc3nnc(C)c4ccccc34)cc2)cc1 | > 50 µM (inactive) |
| CO[C@H]1/C=C/OC2(C)Oc3c(C)c(O)c4c(c3C2=O)C2(C=C(NC(=O)/C(C)=C\C=C\[C@H](C)[C@H](O)[C@@H](C)[C@@H](O)[C@@H](C)[C@H](OC(C)=O)C1C)C4=O)OCC(=O)O2 (stereo not given in full) | > 50 µM (inactive) |
| COc1cccc(-c2cc(C(=O)Nc3cc(C)n(Cc4ccc(Cl)cc4)n3)no2)c1 | 4.38 µM |
| COc1ccc2nc(NC(=O)C(CC(C)C)NS(=O)(=O)c3ccc4c(c3)CCN4C(C)=O)sc2c1 (stereo not given) | 31.1 µM |
| COC(=O)c1cc2c(ccn2C)n1CC(=O)NC1CC1 | > 50 µM (inactive) |
| C[C@]12C(=O)N(c3ccc(C(=O)NCc4ccc(F)cc4)cc3)C(=O)N1CCc1c2[nH]c2ccccc12 | 35.8 µM |
| O=C(c1ccco1)N1CCCC2(C1)Nc1cccnc1NC2=NC1CCCC1 (stereo not given) | > 50 µM (inactive) |
| COc1cccc2cc(C(=O)Nc3ccc4c(c3)OCCO4)oc12 | > 50 µM (inactive) |
| O=c1[nH]c(C2CCN(S(=O)(=O)c3ccc(S(=O)(=O)NC4CCCCC4)cc3)CC2)nc2c1nnn2Cc1c(Cl)cccc1Cl | 12.1 µM |
| COc1ccc2c(c1)CCc1c-2n[nH]c1C(=O)Nc1cc(C)on1 | 4.04 µM |

| Compound | IC50 |
| --- | --- |
| CC(C)OC(=O)c1cc2c(ccn2C)n1CC(=O)N1CCN(C(=O)c2ccco2)CC1 | > 50 µM (inactive) |
| O=C(NCC(c1cccnc1)N1CCc2ccccc2C1)C(=O)Nc1ccc2c(c1)OCO2 (stereo not given) | 33.3 µM |
| Cc1cc(NC(=O)c2nnn(-c3ccccc3Cl)c2C)no1 | > 50 µM (inactive) |
| Clc1cccc(N2CCN(c3ncnc4nc[nH]c34)CC2)c1 | 24.6 µM |
| O=C(Nc1ccc(F)c(Cl)c1)c1ccc(N2CCCCS2(=O)=O)cc1Cl | > 50 µM (inactive) |
| O=S(c1ccc2ccccc2c1)c1cnns1 (stereo not given) | > 50 µM (inactive) |
| COc1ccccc1S(=O)(=O)N1CC[C@@H]2CN(C)[C@@H]2C1 | 32.2 µM |
| COc1ccc2nc3c(cc2c1)c(=O)n(C)c1c3c(=O)n(-c2ccccc2)c(=O)n1-c1ccccc1 | > 50 µM (inactive) |
| O=C1Nc2c(Cl)cc(Cl)cc2C1(O)c1sc(NC2CCCCC2)nc1-c1ccccc1 (stereo not given) | 31.2 µM |
| CSc1ccccc1C(=O)Nc1nc(-c2ccncc2)cs1 | 23.3 µM |
| COc1cccc(CNC(=O)C2=Cc3cccc(OC)c3OC2)c1 | > 50 µM (inactive) |
| O=C(CSc1nc2cc(S(=O)(=O)Nc3ccccc3Cl)ccc2o1)Nc1ccc(N2CCOCC2)cc1 | 49.6 µM |
| COCC(C)Nc1ncc(-c2cnccn2)c(-c2ccc(C)s2)n1 (stereo not given) | > 50 µM (inactive) |
| CCC1OC(O)(C(C)C(O)C(C)C2OC(=O)/C(C)=C/C(C)=CC(C)C(O)C(C)C/C(C)=C/C=C/C2OC)CC(OC(=O)/C=C/C(=O)NC2=C(O)CCC2=O)C1C (stereo not given) | > 50 µM (inactive) |
| CCCCCCCCCC(CCCCCCCCCC(=O)O)O[C@H]1O[C@@H](COC(C)=O)[C@H](O)[C@@H](O)[C@H]1OC(=O)CC(=O)O (stereo not given in full) | 21.7 µM |
| CCCCC/C=C/C=C/C(=O)OC1C(O)CC(c2ccc3c(c2O)C(=O)c2c(O)cc4cc(C)cc(O)c4c2C3=O)OC1C (stereo not given) | > 50 µM (inactive) |
| CNC(=O)CC1NC(=O)c2csc(n2)-c2ccc(-c3nc(C4=NC(C(=O)N5CCCC5C(N)=O)CO4)cs3)nc2-c2csc(n2)-c2csc(n2)C(C(O)c2ccccc2)NC(=O)CNC(=O)c2nc(sc2COC)C(C(C)C)NC(=O)c2nc1sc2C (stereo not given) | > 50 µM (inactive) |
| CCOc1ccc(CC(=O)Nc2ccc(-c3cn4cccnc4n3)cc2)cc1 | > 50 µM (inactive) |
| CC(=O)Nc1ccc(NC(=O)c2cc(-c3cc(C)cc(C)c3O)n[nH]2)cc1 | 12 µM |
| CC(C)Cc1nc2sc3c(NCCN4CCOCC4)ncnc3c2c2c1CCC2 | > 50 µM (inactive) |
| FC(F)(F)c1ccccc1CCN1CCc2nc3ccc(Cl)cc3cc2C1 | > 50 µM (inactive) |
| Cn1nccc1C(=O)N1CCCCC1c1ncc(Cc2ccc(Cl)cc2)o1 (stereo not given) | > 50 µM (inactive) |
